Measured values: ChEMBL document CHEMBL5465560, “Selectivity Literature for EUbOPEN Chemogenomic Library” (2024)

Columns and labels:
[1] = target: T1, Receptor-interacting serine/threonine-protein kinase 4 (Homo sapiens) (UniProt P57078); assay: Selectivity interaction (KinomeScan (DiscoverX)) EUB0000666a RIPK4; conditions: at 10 µM
T1 sequence (whole entry): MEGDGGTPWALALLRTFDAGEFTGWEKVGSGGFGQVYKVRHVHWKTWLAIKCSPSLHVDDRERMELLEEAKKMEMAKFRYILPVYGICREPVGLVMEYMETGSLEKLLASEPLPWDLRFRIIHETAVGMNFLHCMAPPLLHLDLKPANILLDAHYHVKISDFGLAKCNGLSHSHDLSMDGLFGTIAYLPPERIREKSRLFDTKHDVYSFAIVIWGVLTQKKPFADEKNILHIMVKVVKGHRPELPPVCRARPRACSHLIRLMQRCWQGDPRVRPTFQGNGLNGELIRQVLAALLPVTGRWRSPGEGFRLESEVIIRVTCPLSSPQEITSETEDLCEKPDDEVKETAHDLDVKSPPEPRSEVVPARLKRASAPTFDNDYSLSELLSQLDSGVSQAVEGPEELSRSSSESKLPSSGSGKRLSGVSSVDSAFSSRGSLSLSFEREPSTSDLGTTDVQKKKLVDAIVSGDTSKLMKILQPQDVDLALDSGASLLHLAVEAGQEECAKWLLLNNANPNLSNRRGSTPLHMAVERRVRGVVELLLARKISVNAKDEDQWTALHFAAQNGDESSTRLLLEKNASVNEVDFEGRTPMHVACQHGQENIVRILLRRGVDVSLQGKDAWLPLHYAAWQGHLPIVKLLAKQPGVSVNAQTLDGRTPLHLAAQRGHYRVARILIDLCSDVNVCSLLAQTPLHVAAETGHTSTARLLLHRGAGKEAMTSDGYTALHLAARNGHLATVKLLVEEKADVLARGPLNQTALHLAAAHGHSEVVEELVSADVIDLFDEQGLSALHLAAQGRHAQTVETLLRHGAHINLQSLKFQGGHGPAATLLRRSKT

[2] = target: Proto-oncogene tyrosine-protein kinase receptor Ret (Homo sapiens, UniProt P07949); assay: Selectivity interaction (KinaseProfiler screening (Millipore)) EUB0000601a RET; conditions: at 3 µM
Proto-oncogene tyrosine-protein kinase receptor Ret, sequence (P07949 whole entry): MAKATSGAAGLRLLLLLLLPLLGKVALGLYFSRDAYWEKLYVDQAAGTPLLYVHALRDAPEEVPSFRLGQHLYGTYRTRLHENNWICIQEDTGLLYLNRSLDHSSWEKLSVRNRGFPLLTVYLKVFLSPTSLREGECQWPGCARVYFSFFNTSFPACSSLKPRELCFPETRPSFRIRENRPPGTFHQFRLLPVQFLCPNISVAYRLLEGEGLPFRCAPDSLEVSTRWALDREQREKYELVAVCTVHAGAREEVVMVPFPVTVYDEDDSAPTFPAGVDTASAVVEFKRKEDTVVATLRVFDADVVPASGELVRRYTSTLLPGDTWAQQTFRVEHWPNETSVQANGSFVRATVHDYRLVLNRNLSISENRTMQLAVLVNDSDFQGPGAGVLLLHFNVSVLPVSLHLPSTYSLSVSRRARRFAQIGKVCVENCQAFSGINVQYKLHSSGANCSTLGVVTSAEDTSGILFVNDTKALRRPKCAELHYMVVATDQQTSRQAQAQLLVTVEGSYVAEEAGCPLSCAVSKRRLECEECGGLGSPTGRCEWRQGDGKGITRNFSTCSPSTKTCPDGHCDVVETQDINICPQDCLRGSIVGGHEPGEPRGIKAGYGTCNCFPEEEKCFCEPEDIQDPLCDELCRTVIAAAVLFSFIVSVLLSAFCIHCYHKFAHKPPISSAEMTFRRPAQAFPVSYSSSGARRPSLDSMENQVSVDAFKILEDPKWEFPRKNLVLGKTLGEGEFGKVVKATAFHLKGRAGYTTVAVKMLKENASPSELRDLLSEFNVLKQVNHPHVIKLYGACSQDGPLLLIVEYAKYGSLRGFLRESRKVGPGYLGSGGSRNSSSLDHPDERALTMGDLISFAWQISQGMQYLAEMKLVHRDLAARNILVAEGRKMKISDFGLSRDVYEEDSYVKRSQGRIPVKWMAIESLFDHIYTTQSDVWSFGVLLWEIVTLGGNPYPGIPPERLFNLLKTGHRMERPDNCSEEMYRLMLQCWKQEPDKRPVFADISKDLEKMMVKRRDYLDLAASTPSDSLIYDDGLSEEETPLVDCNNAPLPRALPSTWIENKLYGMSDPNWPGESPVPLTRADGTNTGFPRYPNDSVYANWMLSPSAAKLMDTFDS

[3] = target: Serine/threonine-protein kinase pim-1 (Homo sapiens, UniProt P11309); assay: Selectivity interaction (KinomeScan (DiscoverX)) EUB0000229b PIM1; conditions: at 10 µM
Serine/threonine-protein kinase pim-1, sequence (P11309 whole entry, looked up): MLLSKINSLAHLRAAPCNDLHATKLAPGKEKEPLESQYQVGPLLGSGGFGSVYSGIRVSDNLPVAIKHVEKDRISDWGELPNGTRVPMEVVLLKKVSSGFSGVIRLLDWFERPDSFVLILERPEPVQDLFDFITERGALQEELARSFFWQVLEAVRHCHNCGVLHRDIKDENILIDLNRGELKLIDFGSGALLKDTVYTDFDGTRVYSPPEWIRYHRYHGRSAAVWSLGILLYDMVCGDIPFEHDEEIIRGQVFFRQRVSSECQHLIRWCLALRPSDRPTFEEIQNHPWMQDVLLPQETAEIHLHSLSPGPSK

[4] = target: T2, Mitogen-activated protein kinase kinase kinase 7 (Homo sapiens) (UniProt O43318); assay: Selectivity interaction (KinomeScan (DiscoverX)) EUB0000092b MAP3K7; conditions: at 10 µM
T2 sequence (whole entry): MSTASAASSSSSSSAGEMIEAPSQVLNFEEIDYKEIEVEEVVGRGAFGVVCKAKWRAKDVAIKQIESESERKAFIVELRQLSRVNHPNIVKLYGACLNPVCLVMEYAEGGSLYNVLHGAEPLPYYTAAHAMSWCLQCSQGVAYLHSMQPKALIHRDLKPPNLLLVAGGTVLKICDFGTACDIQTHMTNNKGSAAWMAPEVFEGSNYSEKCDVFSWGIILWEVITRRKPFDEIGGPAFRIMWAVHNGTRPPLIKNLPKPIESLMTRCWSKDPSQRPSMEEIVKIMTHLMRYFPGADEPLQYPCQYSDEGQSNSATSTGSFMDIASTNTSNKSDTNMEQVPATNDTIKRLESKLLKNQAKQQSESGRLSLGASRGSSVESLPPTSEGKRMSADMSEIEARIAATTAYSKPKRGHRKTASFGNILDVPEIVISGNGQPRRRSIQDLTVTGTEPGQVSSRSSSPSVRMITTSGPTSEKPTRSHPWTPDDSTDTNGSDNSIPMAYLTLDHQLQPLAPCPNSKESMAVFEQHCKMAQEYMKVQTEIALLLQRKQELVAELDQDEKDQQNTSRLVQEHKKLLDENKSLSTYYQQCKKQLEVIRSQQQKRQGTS

[5] = target: T3, Cyclin-G-associated kinase (Homo sapiens) (UniProt O14976); assay: Selectivity interaction (KinomeScan (DiscoverX)) EUB0000618a GAK; conditions: at 10 µM
T3 sequence (whole entry): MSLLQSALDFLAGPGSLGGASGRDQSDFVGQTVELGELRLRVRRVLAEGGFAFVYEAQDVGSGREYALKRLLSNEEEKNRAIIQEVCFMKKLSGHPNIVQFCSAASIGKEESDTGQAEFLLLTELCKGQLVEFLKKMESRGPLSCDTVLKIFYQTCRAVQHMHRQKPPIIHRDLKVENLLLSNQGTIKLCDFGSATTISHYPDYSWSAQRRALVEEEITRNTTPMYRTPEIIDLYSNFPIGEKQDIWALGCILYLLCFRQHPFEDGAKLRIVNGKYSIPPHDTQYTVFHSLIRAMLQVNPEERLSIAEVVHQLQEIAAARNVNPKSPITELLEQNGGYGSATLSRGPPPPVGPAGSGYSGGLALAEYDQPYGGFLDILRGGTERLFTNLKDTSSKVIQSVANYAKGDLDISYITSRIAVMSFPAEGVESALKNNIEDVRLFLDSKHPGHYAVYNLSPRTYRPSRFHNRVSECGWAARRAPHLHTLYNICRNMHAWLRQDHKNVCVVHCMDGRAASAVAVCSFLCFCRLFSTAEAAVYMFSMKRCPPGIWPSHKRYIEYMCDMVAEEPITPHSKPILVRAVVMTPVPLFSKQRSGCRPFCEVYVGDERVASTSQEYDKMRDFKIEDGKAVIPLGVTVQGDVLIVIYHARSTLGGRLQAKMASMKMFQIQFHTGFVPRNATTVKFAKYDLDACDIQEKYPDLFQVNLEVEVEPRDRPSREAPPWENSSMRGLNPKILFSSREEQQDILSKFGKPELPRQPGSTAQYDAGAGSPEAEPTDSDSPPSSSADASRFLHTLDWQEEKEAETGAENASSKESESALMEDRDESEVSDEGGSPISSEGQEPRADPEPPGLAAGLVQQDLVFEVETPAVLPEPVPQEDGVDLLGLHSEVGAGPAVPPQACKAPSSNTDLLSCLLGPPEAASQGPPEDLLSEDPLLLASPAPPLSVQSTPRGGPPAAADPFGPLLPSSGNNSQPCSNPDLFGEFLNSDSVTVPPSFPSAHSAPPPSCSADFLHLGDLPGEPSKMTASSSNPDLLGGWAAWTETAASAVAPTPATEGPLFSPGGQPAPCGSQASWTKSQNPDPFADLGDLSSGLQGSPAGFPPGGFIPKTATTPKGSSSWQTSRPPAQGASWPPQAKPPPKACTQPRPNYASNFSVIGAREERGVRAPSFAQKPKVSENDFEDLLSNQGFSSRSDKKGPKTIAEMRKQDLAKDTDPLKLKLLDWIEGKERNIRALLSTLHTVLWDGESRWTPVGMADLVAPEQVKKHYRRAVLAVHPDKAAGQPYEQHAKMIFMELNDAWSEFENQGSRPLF

[6] = target: Serine/threonine-protein kinase 38-like (Homo sapiens) (UniProt Q9Y2H1); assay: Selectivity interaction (KinomeScan (DiscoverX)) EUB0000618a STK38L; conditions: at 10 µM
Serine/threonine-protein kinase 38-like (Homo sapiens), sequence (Q9Y2H1 2-464 limits assumed): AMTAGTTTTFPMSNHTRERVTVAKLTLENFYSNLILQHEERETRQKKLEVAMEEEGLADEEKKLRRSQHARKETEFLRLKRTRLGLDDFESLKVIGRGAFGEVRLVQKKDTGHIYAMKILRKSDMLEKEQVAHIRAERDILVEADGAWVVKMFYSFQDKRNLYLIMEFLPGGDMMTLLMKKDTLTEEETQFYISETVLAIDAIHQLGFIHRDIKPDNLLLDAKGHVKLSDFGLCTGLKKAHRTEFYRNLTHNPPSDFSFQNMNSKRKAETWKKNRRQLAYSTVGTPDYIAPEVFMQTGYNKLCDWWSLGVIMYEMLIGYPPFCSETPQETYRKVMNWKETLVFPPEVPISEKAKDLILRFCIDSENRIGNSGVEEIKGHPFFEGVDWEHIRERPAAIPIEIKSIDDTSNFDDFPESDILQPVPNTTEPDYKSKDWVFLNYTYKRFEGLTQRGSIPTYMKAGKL

[7] = target: Serine/threonine-protein kinase WNK1 (Homo sapiens) (UniProt Q9H4A3); assay: Selectivity interaction (KinomeScan (DiscoverX)) EUB0001619a WNK1; conditions: at 1 µM
Serine/threonine-protein kinase WNK1 (Homo sapiens), sequence (Q9H4A3 whole entry, looked up): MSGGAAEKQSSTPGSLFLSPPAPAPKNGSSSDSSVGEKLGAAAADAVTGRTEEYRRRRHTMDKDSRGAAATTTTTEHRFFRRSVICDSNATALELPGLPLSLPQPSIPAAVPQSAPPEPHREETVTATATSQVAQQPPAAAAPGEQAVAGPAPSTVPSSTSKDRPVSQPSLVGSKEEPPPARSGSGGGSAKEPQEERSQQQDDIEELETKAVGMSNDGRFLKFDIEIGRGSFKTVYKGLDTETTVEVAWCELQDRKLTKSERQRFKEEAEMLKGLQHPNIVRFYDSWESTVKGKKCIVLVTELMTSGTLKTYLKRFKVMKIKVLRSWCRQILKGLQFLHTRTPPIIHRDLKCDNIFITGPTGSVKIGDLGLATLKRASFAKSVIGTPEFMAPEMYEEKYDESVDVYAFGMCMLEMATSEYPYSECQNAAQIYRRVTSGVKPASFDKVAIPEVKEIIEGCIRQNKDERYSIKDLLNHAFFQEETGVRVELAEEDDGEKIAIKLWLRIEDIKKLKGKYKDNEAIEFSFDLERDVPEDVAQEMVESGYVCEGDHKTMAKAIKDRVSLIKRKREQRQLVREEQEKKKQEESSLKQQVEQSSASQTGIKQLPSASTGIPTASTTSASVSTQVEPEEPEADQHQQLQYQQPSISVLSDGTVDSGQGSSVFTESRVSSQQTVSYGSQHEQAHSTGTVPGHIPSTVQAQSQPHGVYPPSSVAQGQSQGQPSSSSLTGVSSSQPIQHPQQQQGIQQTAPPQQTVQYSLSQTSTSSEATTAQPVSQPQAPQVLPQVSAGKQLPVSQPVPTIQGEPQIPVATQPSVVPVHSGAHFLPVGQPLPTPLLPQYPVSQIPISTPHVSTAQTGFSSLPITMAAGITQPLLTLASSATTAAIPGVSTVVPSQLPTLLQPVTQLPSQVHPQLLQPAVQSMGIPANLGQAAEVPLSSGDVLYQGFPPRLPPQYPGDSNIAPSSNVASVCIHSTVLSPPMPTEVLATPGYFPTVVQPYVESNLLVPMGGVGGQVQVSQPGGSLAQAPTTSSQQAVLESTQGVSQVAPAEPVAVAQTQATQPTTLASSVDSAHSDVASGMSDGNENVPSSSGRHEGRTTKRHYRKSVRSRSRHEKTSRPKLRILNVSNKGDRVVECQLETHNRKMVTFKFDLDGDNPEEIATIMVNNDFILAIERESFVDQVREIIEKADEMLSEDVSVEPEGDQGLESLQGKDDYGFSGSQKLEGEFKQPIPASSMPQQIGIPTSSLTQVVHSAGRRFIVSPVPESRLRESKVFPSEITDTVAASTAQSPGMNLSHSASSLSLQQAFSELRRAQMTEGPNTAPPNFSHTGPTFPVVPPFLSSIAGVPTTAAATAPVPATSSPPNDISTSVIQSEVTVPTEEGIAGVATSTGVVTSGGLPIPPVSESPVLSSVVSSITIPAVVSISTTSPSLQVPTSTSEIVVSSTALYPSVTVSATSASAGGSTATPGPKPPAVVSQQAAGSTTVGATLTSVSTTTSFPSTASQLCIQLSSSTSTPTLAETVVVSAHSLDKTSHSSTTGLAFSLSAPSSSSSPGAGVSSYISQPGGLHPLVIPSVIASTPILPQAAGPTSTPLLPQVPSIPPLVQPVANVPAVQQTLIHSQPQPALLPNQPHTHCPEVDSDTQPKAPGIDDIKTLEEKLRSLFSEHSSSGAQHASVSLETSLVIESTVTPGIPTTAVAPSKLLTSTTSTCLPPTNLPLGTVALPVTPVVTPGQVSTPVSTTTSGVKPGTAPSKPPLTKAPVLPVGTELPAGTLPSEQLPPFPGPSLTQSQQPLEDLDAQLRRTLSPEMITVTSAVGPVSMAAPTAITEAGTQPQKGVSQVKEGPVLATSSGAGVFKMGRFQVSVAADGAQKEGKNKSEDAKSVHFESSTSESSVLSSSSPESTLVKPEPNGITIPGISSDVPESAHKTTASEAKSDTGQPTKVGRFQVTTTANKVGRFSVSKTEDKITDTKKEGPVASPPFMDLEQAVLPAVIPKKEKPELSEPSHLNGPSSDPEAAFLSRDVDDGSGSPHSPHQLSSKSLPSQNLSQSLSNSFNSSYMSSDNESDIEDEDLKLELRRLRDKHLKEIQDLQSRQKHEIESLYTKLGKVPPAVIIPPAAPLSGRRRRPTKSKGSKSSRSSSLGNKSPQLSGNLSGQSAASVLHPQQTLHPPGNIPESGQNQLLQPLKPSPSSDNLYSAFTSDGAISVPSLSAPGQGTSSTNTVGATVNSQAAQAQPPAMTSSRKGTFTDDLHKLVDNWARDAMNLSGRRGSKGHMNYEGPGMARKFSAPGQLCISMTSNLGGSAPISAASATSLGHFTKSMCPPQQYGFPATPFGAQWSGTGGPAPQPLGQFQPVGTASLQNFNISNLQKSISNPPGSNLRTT

How did the % of control [1] turn out when `O=C(NOC[C@H](O)CO)c1ccc(F)c(F)c1Nc1ccc(I)cc1F` was run?
The % of control was 100%.

With `CCc1cc(Nc2nccc(-c3c(-c4ccc(OC)c(C(=O)Nc5c(F)cccc5F)c4)nc4ccccn34)n2)c(OC)cc1N1CCC(N2CCN(S(C)(=O)=O)CC2)CC1` as the molecule, how does the % of inhibition [2] read?
Its % of inhibition is 52%.

How did the % binding [3] turn out when `COc1cc(N(C)c2ccnc3ccc(C(F)(F)F)cc23)cc(OC)c1OC` was run?
The % binding was 69%.

How did the % of control [4] turn out when `CCC(=O)N1CCN(c2ccc(-n3c(=O)ccc4cnc5ccc(-c6cnc7ccccc7c6)cc5c43)cc2C(F)(F)F)CC1` was run?
Its % of control is 47%.

`O[C@H]1CC[C@H](Nc2ncc3nc(Nc4c(F)cc(F)cc4F)n([C@H]4CCOC4)c3n2)CC1` was tested. Which % of control [5] did it give?
Its % of control is 13%.

What about the % of control [6] of the same molecule?
Its % of control is 100%.

How did the % of control [7] turn out when `N#Cc1cccc(-c2c[nH]c3ncnc(N4CCOCC4)c23)c1` was run?
Its % of control is 100%.
